Consider five compounds from patent US5736546A, “1,4-(diphenlyalkyl) piperazine derivatives” (Santen Pharmaceutical Co., Ltd., priority 1993, dated 1998).

Structures can show the parent of a compound that is named as a salt.

For test [1], the target named is T1, sigma receptors (Cavia porcellus, UniProt Q60492).
T1 construct: A brain of a Hartley guinea pig (weight: 300-400 g) was excised; from tissue; host or cells: Hartley guinea pig brain, membrane preparation
Put plainly: Experiment using [3H](+)-PTZ as a labeled ligand (affinity for sigma receptors). Also noted: species or system Hartley guinea pig. The following applies: [3H](+)-PTZ 5 nM; guinea pig brain membrane; 37° C., 150 minutes; averages of 4-11 samples; read-out: IC50 (inhibition of specific binding of [3H](+)-PTZ).
Method: Experiment Using [^3 H](+)-PTZ as a Labeled Ligand
Affinities for sigma receptors were determined by the following method using [^3 H](+)-PTZ as a labeled ligand according to the report of DeHaven-Hudkins et al. (Eur. I. Pharmacol,, 227, 371-378 (1992)).

For test [2], the system named is amount of acetylcholine in rat brain. Put plainly: Increasing effects on the amount of intracerebral acetylcholine (intracerebral microdialysis method). It is filed as in vivo, male Wistar rat. The conditions noted are these: oral, 30 minutes after administration, averages of 3-7 samples. The procedure: (The New England Journal of Medicine, 315, 1241-1245 (1986)), the amount of acetylcholine in rat brain was then measured according to the report of Matsuno et al. (Brain Research, 575, 315-319 (1992)). […] 2. […] (The New England Journal of Medicine, 315, 1241-1245 (1986)), an experiment was performed to examine effects of the compounds of this invention on the amount of acetylcholine in rat brain. (Experimental Method) The amount of acetylcholine in rat brain was measured by the following method using intracerebral microdialysis method according to the report of Matsuno et al. (Brain Research, 575, 315-319 (1992)). […] The amount of acetylcholine in rat brain was measured with time. When it became constant, the test compound suspended in 1% methylcellulose solution was administered orally to the rat, and the amount of intracerebral acetylcholine was measured. The amount of acetylcholine in rat brain (average of six samples) to which the test compound was not administered was used as a control.

The target in a further test is μ receptors (Rattus norvegicus, UniProt P33535).
Test [3] addresses T1, sigma receptors. Put plainly: biochemical. Also noted: species or system Hartley guinea pig. The conditions noted are these: read-out: IC50 (inhibition of specific binding of [3H](+)-SKF-10047).

Chain of μ receptors (P33535 whole entry): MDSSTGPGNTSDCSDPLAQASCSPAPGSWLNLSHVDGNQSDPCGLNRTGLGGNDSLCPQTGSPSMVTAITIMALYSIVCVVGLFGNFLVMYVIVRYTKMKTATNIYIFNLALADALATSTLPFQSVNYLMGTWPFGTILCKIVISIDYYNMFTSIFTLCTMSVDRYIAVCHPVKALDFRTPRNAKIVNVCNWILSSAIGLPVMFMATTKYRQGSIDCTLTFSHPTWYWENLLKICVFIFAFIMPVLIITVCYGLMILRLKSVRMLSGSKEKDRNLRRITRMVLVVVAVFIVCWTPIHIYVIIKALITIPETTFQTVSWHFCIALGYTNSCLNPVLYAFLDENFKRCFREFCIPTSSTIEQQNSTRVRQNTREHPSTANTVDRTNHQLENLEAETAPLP
T1 sequence (Q60492 whole entry): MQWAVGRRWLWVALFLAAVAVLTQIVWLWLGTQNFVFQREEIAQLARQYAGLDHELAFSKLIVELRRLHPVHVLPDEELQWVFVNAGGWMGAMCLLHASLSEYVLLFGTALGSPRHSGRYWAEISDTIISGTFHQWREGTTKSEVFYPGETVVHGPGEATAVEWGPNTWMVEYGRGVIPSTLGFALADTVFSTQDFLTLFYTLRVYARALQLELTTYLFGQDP

Consider `COc1ccc(CCN2CCN(CCCCc3ccccc3)CC2)cc1OC.Cl.Cl` [compound No. 1-4, 1-[2-(3,4-Dimethoxyphenyl)ethyl]-4-(4-phenylbutyl)piperazine dihydrochloride], for which the IC50 at sigma receptors [1] turned out to be 0.0107 µM. Further, the “amount of acetylcholine (% control)” value is listed as 146.2 % control in test [2] (40 mg/kg) and 164.9 % control in test [2] (80 mg/kg).

As for `COc1ccc(CCN2CCN(CCCc3ccccc3)CC2)cc1OC.Cl.Cl` [compound No. 1-1, 1-[2-(3,4-Dimethoxyphenyl)ethyl]-4-(3-phenylpropyl)piperazine dihydrochloride], the “amount of acetylcholine (% control)” value was 154.3 % control in test [2] (10 mg/kg) and 170.0 % control in test [2] (20 mg/kg). The IC50 against μ receptors was more than 10 µM.

With `COc1ccc(CCCN2CCN(CCCc3ccccc3)CC2)cc1OC.Cl.Cl` [compound No. 1-6, 1-[3-(3,4-Dimethoxyphenyl)propyl]-4-(3-phenylpropyl)piperazine dihydrochloride], the IC50 at sigma receptors [1] amounted to 0.0149 µM. Further, the results for the “amount of acetylcholine (% control)” value in test [2] (20 mg/kg) and in test [2] (40 mg/kg) were 146.1 % control and 176.9 % control, respectively.

As to `COc1ccc(CCN2CCN(CCc3ccccc3)CC2)cc1OC` [compound No. 1-2, 1-[2-(3,4-Dimethoxyphenyl)ethyl]-4-(2-phenylethyl)piperazine dihydrochloride], the IC50 on sigma receptors [3] was 0.00932 µM; at sigma receptors [1], 0.018 µM; at μ receptors, more than 10 µM.

Turning to `COc1ccc(CCN2CCN(Cc3ccccc3)CC2)cc1OC` [compound No. 1-3, 1-[2-(3,4-Dimethoxyphenyl)ethyl]-4-benzylpiperazine dihydrochloride], the IC50 at sigma receptors [3] ([3H](+)-SKF-10047 5 nM, guinea pig brain membrane, 25° C., 30 minutes) was 0.00428 µM; at μ receptors, more than 10 µM.

Broadly, the IC50 is the concentration that inhibits the measured activity by half.
